ChEMBL document CHEMBL1201861, “Genomics of Drug Sensitity in Cancer screening data, Wellcome Trust Sanger Institute”
“And” between values parts separate entries of the source, which are not always exact repeats. Equal entries are not always repeated.

How the values were obtained:
Assay in all cases: cells
LAMA-84 = assay type: functional, cell-based; conditions: Homo sapiens;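 also: growth inhibition of LAMA-84 cells, read out with a cell viability assay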
Description: SANGER: Inhibition of human LAMA-84 cell growth in a cell viability assay.

HuP-T4 = assay type: functional, cell-based, Homo sapiens;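 also: cell viability assay measuring how much HuP-T4 cell growth is inhibited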
Description: SANGER: Inhibition of human HuP-T4 cell growth in a cell viability assay.

OMC-1 = assay type: functional, cell-based, Homo sapiens;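 also: growth inhibition of the OMC-1 cell line, measured by a cell viability assay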
Description: SANGER: Inhibition of human OMC-1 cell growth in a cell viability assay.

LS-411N = assay type: functional, cell-based, Homo sapiens
A-375 = assay type: functional, cell-based, Homo sapiens;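 also: growth inhibition of A375 cells, read out with a cell viability assay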
Description: SANGER: Inhibition of human A375 cell growth in a cell viability assay.

MEL-HO = assay type: functional, cell-based, Homo sapiens
Description: SANGER: Inhibition of human MEL-HO cell growth in a cell viability assay.

BFTC-905 = assay type: functional, cell-based, Homo sapiens
Description: SANGER: Inhibition of human BFTC-905 cell growth in a cell viability assay.

NTERA-2-cl-D1 = assay type: functional, cell-based, Homo sapiens;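 also: inhibition of cell growth, measured with a cell viability assay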
Description: SANGER: Inhibition of human NTERA-S-cl-D1 cell growth in a cell viability assay.

OVCAR-4 = assay type: functional, cell-based, Homo sapiens;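 also: growth inhibition of human OVCAR-4 cells, measured with a cell viability assay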
Description: SANGER: Inhibition of human OVCAR-4 cell growth in a cell viability assay.

KM-H2 = assay type: functional, cell-based; conditions: Homo sapiens;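 also: growth inhibition of KM-H2 cells, read out by a cell viability assay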
Description: SANGER: Inhibition of human KM-H2 cell growth in a cell viability assay.

A204 = assay type: functional, cell-based, Homo sapiens;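 also: growth inhibition of human A204 cells, read out with a cell viability assay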
Description: SANGER: Inhibition of human A204 cell growth in a cell viability assay.

TE-10 = assay type: functional, cell-based, Homo sapiens;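 also: growth inhibition of TE-10 cells, measured by a cell viability assay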
Description: SANGER: Inhibition of human TE-10 cell growth in a cell viability assay.

HCC1806 = assay type: functional, cell-based, Homo sapiens;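 also: growth inhibition of the cancer cell line, determined with a cell viability assay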
Description: SANGER: Inhibition of human HCC1806 cell growth in a cell viability assay.

G-402 = assay type: functional, cell-based, Homo sapiens
Description: SANGER: Inhibition of human G-402 cell growth in a cell viability assay.

A-431 = assay type: functional, cell-based, Homo sapiens;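 also: growth inhibition of A-431 cells, determined with a cell viability read-out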
Description: SANGER: Inhibition of human A431 cell growth in a cell viability assay.

RT-112 = assay type: functional, cell-based, Homo sapiens
Description: SANGER: Inhibition of human RT-112 cell growth in a cell viability assay.

IA-LM = assay type: functional, cell-based, Homo sapiens;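 also: cell viability assay measuring growth inhibition of human IA-LM cells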
Description: SANGER: Inhibition of human IA-LM cell growth in a cell viability assay.

U-87 MG = assay type: functional, cell-based, U-87MG ATCC; conditions: Homo sapiens;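 also: growth inhibition of the cells measured with a viability assay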
Description: SANGER: Inhibition of human U-87-MG cell growth in a cell viability assay.

MG-63 = assay type: functional, cell-based, Homo sapiens;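 also: growth inhibition of human MG-63 cells, read out with a cell viability assay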
Description: SANGER: Inhibition of human MG-63 cell growth in a cell viability assay.

SK-OV-3 = assay type: functional, cell-based, Homo sapiens;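 also: growth inhibition of SK-OV-3 human cells, read out with a cell viability assay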
Description: SANGER: Inhibition of human SK-OV-3 cell growth in a cell viability assay.

MC116 = assay type: functional, cell-based; conditions: Homo sapiens;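 also: growth inhibition of MC116 cells, read out with a cell viability assay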
Description: SANGER: Inhibition of human MC116 cell growth in a cell viability assay.

UO-31 = assay type: functional, cell-based; conditions: Homo sapiens;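 also: cell viability assay measuring inhibition of cell growth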
Description: SANGER: Inhibition of human U031 cell growth in a cell viability assay.

CAL-33 = assay type: functional, cell-based, Homo sapiens;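 also: growth inhibition of CAL-33 cells, read out with a cell viability assay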
Description: SANGER: Inhibition of human CAL-33 cell growth in a cell viability assay.

GCT = assay type: functional, cell-based, Homo sapiens;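 also: GCT cell line proliferation inhibition, read out with a cell viability assay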
Description: SANGER: Inhibition of human GCT cell growth in a cell viability assay.

NCI-H727 = assay type: functional, cell-based, Homo sapiens;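 also: growth inhibition of human NCI-H727 cells, read out with a cell viability assay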
Description: SANGER: Inhibition of human NCI-H727 cell growth in a cell viability assay.

NCI-H1581 = assay type: functional, cell-based, Homo sapiens;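 also: cell growth inhibition read out by a viability assay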
Description: SANGER: Inhibition of human NCI-H1581 cell growth in a cell viability assay.

HH = assay type: functional, cell-based; conditions: Homo sapiens
Description: SANGER: Inhibition of human HH cell growth in a cell viability assay.

RPMI-7951 = assay type: functional, cell-based, Homo sapiens
Description: SANGER: Inhibition of human RPMI-7951 cell growth in a cell viability assay.

DK-MG = assay type: functional, cell-based, Homo sapiens;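 also: growth inhibition of DK-MG cells, read out with a cell viability assay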
Description: SANGER: Inhibition of human DK-MG cell growth in a cell viability assay.

BE-13 = assay type: functional, cell-based; conditions: Homo sapiens;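 also: growth inhibition of human BE-13 cells, measured with a cell viability assay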
Description: SANGER: Inhibition of human BE-13 cell growth in a cell viability assay.

MFM-223 = assay type: functional, cell-based, Homo sapiens
Description: SANGER: Inhibition of human MFM-223 cell growth in a cell viability assay.

CAL-85-1 = assay type: functional, cell-based; conditions: Homo sapiens;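 also: growth inhibition of human CAL-85-1 cells, read out with a cell viability assay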
Description: SANGER: Inhibition of human CAL-85-1 cell growth in a cell viability assay.

H4 = assay type: functional, cell-based; conditions: Homo sapiens
Description: SANGER: Inhibition of human H4 cell growth in a cell viability assay.

CAMA-1 = assay type: functional, cell-based, Homo sapiens;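 also: growth inhibition of CAMA-1 cells, read out with a cell viability assay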
Description: SANGER: Inhibition of human CAMA-1 cell growth in a cell viability assay.

KOSC-2 = assay type: functional, cell-based, Homo sapiens;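 also: growth inhibition of KOSC-2 cells, read out by a cell viability assay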
Description: SANGER: Inhibition of human KOSC-2 cell growth in a cell viability assay.

UACC-257 = assay type: functional, cell-based, Homo sapiens
Description: SANGER: Inhibition of human UACC-257 cell growth in a cell viability assay.

697 = assay type: functional, cell-based; conditions: Homo sapiens
Description: SANGER: Inhibition of human 697 cell growth in a cell viability assay.

BEN = assay type: functional, cell-based, Homo sapiens;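 also: growth inhibition of the BEN cell line, read out with a cell viability assay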
Description: SANGER: Inhibition of human BEN cell growth in a cell viability assay.

KARPAS-299 = assay type: functional, cell-based; conditions: Homo sapiens
Description: SANGER: Inhibition of human KARPAS-299 cell growth in a cell viability assay.

HuCCT-1 = assay type: functional, cell-based, Homo sapiens, HuCCT1;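 also: growth inhibition of HuCCT-1 cells, read out by a cell viability assay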
Description: SANGER: Inhibition of human HuCCT1 cell growth in a cell viability assay.

KM12 = assay type: functional, cell-based, Homo sapiens;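 also: KM12 cell growth inhibition, read out with a cell viability assay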
Description: SANGER: Inhibition of human KM12 cell growth in a cell viability assay.

OCI-AML2 = assay type: functional, cell-based; conditions: Homo sapiens;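 also: growth inhibition of OCI-AML2 cells, read out with a cell viability assay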
Description: SANGER: Inhibition of human OCI-AML2 cell growth in a cell viability assay.

HCC1395 = assay type: functional, cell-based, Homo sapiens;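 also: growth inhibition of HCC1395 cells, read out by a cell viability assay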
Description: SANGER: Inhibition of human HCC1395 cell growth in a cell viability assay.

SW1783 = assay type: functional, cell-based; conditions: Homo sapiens;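 also: cell growth inhibition measured with a viability assay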
Description: SANGER: Inhibition of human SW1783 cell growth in a cell viability assay.

SK-NEP-1 = assay type: functional, cell-based; conditions: Homo sapiens;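 also: growth inhibition of human SK-NEP-1 cells, read out by a cell viability assay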
Description: SANGER: Inhibition of human SK-NEP-1 cell growth in a cell viability assay.

HAL-01 = assay type: functional, cell-based; conditions: Homo sapiens;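 also: growth inhibition of human HAL-01 cells, read out with a cell viability assay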
Description: SANGER: Inhibition of human HAL-01 cell growth in a cell viability assay.

IST-SL1 = assay type: functional, cell-based, Homo sapiens;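 also: growth inhibition of human IST-SL1 cells, read out with a cell viability assay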
Description: SANGER: Inhibition of human IST-SL1 cell growth in a cell viability assay.

KU812 cell line = assay type: functional, cell-based; conditions: Homo sapiens;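 also: growth inhibition of KU812 cells, read out with a cell viability assay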
Description: SANGER: Inhibition of human KU812 cell growth in a cell viability assay.

DOK = assay type: functional, cell-based, Homo sapiens;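 also: cell viability assay read-out, values reflect inhibition of cell growth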
Description: SANGER: Inhibition of human DOK cell growth in a cell viability assay.

CTV-1 = assay type: functional, cell-based; conditions: Homo sapiens;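 also: growth inhibition of the cell line, read out with a cell viability assay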
Description: SANGER: Inhibition of human CTV-1 cell growth in a cell viability assay.

KS-1 = assay type: functional, cell-based, Homo sapiens;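 also: growth inhibition of KS-1 cells, read out with a cell viability assay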
Description: SANGER: Inhibition of human KS-1 cell growth in a cell viability assay.

JAR = assay type: functional, cell-based, Homo sapiens; conditions: jar;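 also: growth inhibition of human JAR cells determined with a cell viability assay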
Description: SANGER: Inhibition of human JAR cell growth in a cell viability assay.

NB7 = assay type: functional, cell-based; conditions: Homo sapiens;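 also: growth inhibition of NB7 cells, read out with a cell viability assay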
Description: SANGER: Inhibition of human NB7 cell growth in a cell viability assay.

Compound: COC(=O)CNC(=O)C(=O)OC
- IC50 (LAMA-84): 2110 µM
- IC50 (HuP-T4; Homo sapiens, HuP-T4): 128 µM
- IC50 (OMC-1; Homo sapiens, OMC-1): 249 µM
- IC50 (LS-411N; Homo sapiens, LS-411N): > 4000 µM
- IC50 (A-375; Homo sapiens, A-375): 176 µM
- IC50 (MEL-HO; Homo sapiens, MEL-HO): 3610 µM
- IC50 (BFTC-905; Homo sapiens, BFTC-905): 580 µM
- IC50 (NTERA-2-cl-D1; Homo sapiens, NTERA-2-cl-D1): 57.6 µM
- IC50 (OVCAR-4; Homo sapiens, OVCAR-4): 93.8 µM
- IC50 (KM-H2): > 4000 µM
- IC50 (A204; Homo sapiens, A204): 398 µM
- IC50 (TE-10; Homo sapiens, TE-10): 629 µM
- IC50 (HCC1806; Homo sapiens, HCC1806): 1840 µM
- IC50 (G-402; Homo sapiens, G-402): 1230 µM
- IC50 (A-431; Homo sapiens, A-431): 97.5 µM
- IC50 (RT-112; Homo sapiens, RT-112): 176 µM
- IC50 (IA-LM; Homo sapiens, IA-LM): 153 µM
- IC50 (U-87 MG): 147 µM
- IC50 (MG-63; Homo sapiens, MG-63): 144 µM
- IC50 (SK-OV-3; Homo sapiens, SK-OV-3): 798 µM
- IC50 (MC116): 174 µM
- IC50 (UO-31): 338 µM
- IC50 (CAL-33; Homo sapiens, CAL-33): 242 µM
- IC50 (GCT; Homo sapiens, GCT): > 4000 µM
- IC50 (NCI-H727; Homo sapiens, NCI-H727): > 4000 µM
- IC50 (NCI-H1581; Homo sapiens, NCI-H1581): 729 µM
- IC50 (HH): 34 µM
- IC50 (RPMI-7951; Homo sapiens, RPMI-7951): 322 µM
- IC50 (DK-MG; Homo sapiens, DK-MG): 526 µM
- IC50 (BE-13): 180 µM
- IC50 (MFM-223; Homo sapiens, MFM-223): > 4000 µM
- IC50 (CAL-85-1): 108 µM
- IC50 (H4): 177 µM
- IC50 (CAMA-1; Homo sapiens, CAMA-1): > 4000 µM
- IC50 (KOSC-2; Homo sapiens, KOSC-2): > 4000 µM
- IC50 (UACC-257; Homo sapiens, UACC-257): 1090 µM
- IC50 697: 229 µM
- IC50 (BEN; Homo sapiens, BEN): 36.8 µM
- IC50 (KARPAS-299): 98 µM
- IC50 (HuCCT-1; Homo sapiens, HuCCT-1): 211 µM
- IC50 (KM12; Homo sapiens, KM12): 2240 µM
- IC50 (OCI-AML2): 501 µM
- IC50 (HCC1395; Homo sapiens, HCC1395): 1540 µM
- IC50 (SW1783): 156 µM
- IC50 (SK-NEP-1): 976 µM
- IC50 (HAL-01): 119 µM
- IC50 (IST-SL1; Homo sapiens, IST-SL1): 492 µM
- IC50 (KU812 cell line): 28.5 µM
- IC50 (DOK; Homo sapiens, DOK): > 4000 µM
- IC50 (CTV-1): 468 µM
- IC50 (KS-1; Homo sapiens, KS-1): 11.3 µM

Compound: Cc1cc([C@@H](C)Nc2ccccc2C(=O)O)c2nc(N3CCOCC3)cc(=O)n2c1 [AZD-6482]
- IC50 (LAMA-84): > 5.12 µM
- IC50 (HuP-T4; hup-t4): > 5.12 µM
- IC50 (OMC-1; omc-1): > 5.12 µM
- IC50 (LS-411N; Homo sapiens, LS-411N): > 5.12 µM
- IC50 (LS-411N; ls-411n): > 5.12 µM
- IC50 (A-375; a-375): > 5.12 µM
- IC50 (MEL-HO; mel-ho): 1.24 µM and > 5.12 µM
- IC50 (BFTC-905; bftc-905): > 5.12 µM and 4.15 µM
- IC50 (NTERA-2-cl-D1; Homo sapiens, NTERA-2-cl-D1): 2.19 µM
- IC50 (NTERA-2-cl-D1; ntera-2-cl-d1): 4.38 µM
- IC50 (OVCAR-4; ovcar-4): > 5.12 µM
- IC50 (KM-H2): > 5.12 µM
- IC50 (A204; Homo sapiens, A204): > 5.12 µM
- IC50 (A204; a204): 2.77 µM
- IC50 (TE-10; te-10): > 5.12 µM
- IC50 (HCC1806; hcc1806): > 5.12 µM
- IC50 (G-402; g-402): 3.24 µM and > 5.12 µM
- IC50 (A-431; a-431): > 5.12 µM
- IC50 (RT-112; Homo sapiens, RT-112): > 5.12 µM
- IC50 (RT-112; rt-112): > 5.12 µM
- IC50 (IA-LM; ia-lm): > 5.12 µM
- IC50 (U-87 MG): > 5.12 µM
- IC50 (MG-63; mg-63): > 5.12 µM and 1.59 µM
- IC50 (SK-OV-3; sk-ov-3): 1.2 µM and 4.67 µM
- IC50 (MC116): 1.46 µM
- IC50 (CAL-33; Homo sapiens, CAL-33): 1.49 µM
- IC50 (CAL-33; cal-33): 2.55 µM
- IC50 (GCT; gct): > 5.12 µM
- IC50 (NCI-H727; nci-h727): > 5.12 µM
- IC50 (NCI-H1581; nci-h1581): > 5.12 µM
- IC50 (HH): 0.962 µM
- IC50 (RPMI-7951; Homo sapiens, RPMI-7951): > 5.12 µM
- IC50 (RPMI-7951; rpmi-7951): > 5.12 µM
- IC50 (DK-MG; dk-mg): > 5.12 µM
- IC50 (BE-13): > 5.12 µM
- IC50 (MFM-223; mfm-223): > 5.12 µM
- IC50 (JAR): > 5.12 µM
- IC50 (CAL-85-1): 2.28 µM
- IC50 (CAMA-1; cama-1): 1.2 µM and > 5.12 µM
- IC50 (KOSC-2; kosc-2): > 5.12 µM
- IC50 (UACC-257; Homo sapiens, UACC-257): > 5.12 µM
- IC50 (UACC-257; uacc-257): > 5.12 µM
- IC50 697: 4.6 µM
- IC50 (BEN; ben): > 5.12 µM
- IC50 (KARPAS-299): > 5.12 µM
- IC50 (HuCCT-1; hucct1): > 5.12 µM and 1.24 µM
- IC50 (KM12; Homo sapiens, KM12): > 5.12 µM
- IC50 (KM12; km12): > 5.12 µM
- IC50 (OCI-AML2): > 5.12 µM
- IC50 (HCC1395; Homo sapiens, HCC1395): > 5.12 µM
- IC50 (HCC1395; hcc1395): > 5.12 µM
- IC50 (SK-NEP-1): > 5.12 µM
- IC50 (HAL-01): 1.3 µM
- IC50 (IST-SL1; ist-sl1): > 5.12 µM
- IC50 (NB7): > 5.12 µM
- IC50 (KU812 cell line): 1.6 µM
- IC50 (DOK; dok): 3.85 µM and 1.53 µM
- IC50 (CTV-1): > 5.12 µM
- IC50 (KS-1; Homo sapiens, KS-1): > 5.12 µM
- IC50 (KS-1; ks-1): > 5.12 µM
